Data reported in patent US20110104301A1, “METHODS OF REDUCING PAIN AND INFLAMMATION” (Georgetown University, A Congressionally Chartered …, priority 2008, published 2011).

Legend:
TRPV1 = TRPV1 (Rattus norvegicus, UniProt O35433); experiment: Whole-cell patch-clamp of TRPV1-expressing HEK293 cells; format: cell-based; design: expressed in transfected cells; host or cells: HEK 293F (Invitrogen), co-transfected with GFP cDNA; conditions: 100 μM
Description: (§1) Electrophysiology. […] Whole-cell and single-channel patch-clamp recordings were performed by using an EPC8 amplifier (HEKA Electronics). For whole-cell and excised patch recordings the bath solution contained 140 mMNaCl, 4 mMKCl, 1 mMMgCl2, 1.2 mMCaCl2, 10 mMHepes, 10 mM glucose, pH 7.3. For cell-attached experiments, NaCl was replaced with KCl in the bath solution. […] For neuronal recording NaCl was replaced with K-gluconate (plus 1 mMATP, 0.2 mM GTP). Solutions were applied via a gravity-fed system. […] Voltage-dependent properties were measured as described in Matt and Ahern, J. Physiol. […] The baseline currents under control conditions were subtracted. For cell-attached experiments, peak amplitudes were measured from all-points histograms, and open probability was measured as NPo>750 ms. Defolliculated Xenopus laevis oocytes were injected with ≈10 ng of hTRPA1 (gift of Ardem Patapoutian, The Scripps Research Institute, La Jolla, Calif.).
HEK cell and sensory neuron electrophysiology. […] Cell cultures were maintained at 37° C. with 5% CO2. Cells were transfected with rat TRPV 1 (gift of David Julius), and GFP cDNA using Lipofectamine™ Transfection Reagent (Invitrogen) and used 24-48 h after transfection. Nodose ganglia were obtained from adult mice (C57B16/J and TRPV1-null), cut, digested with collagenase, and cultured in Neurobasal +2% B-27 medium (Invitrogen), 0.1% L-glutamine and 1% penicillin/streptomycin on poly-D lysine-coated glass coverslips at 37° C. in 5% CO2. Neurons were used within 24-36 hr of culture. Whole-cell and single-channel patch clamp recordings were performed using an EPC8 amplifier (HEKA). The current signal was low-pass filtered at 1-3 kHz and sampled at 4 kHz. Currents were further filtered for display purposes. For whole-cell and excised patch recordings the bath solution contained (in mM): 140 NaCl, 4 KCl, 1 MgCl2, 1 EGTA, 10 HEPES, 10 glucose pH 7.3 (290 mOsm). The pipette solution contained (in mM): 140 CsC1, 10 NaCl, 10 HEPES, 5 EGTA, 2 Mg ATP and 0.03 GTP, pH 7.3. The peak amplitudes measured either during the prepulse or the tail current (within 1 ms) were plotted as a function of the test potential and normalized to the maximal current obtained from the following Boltzmann function: […]

DRG neurons = experiment: Ca2+ imaging in DRG neurons from wild-type mice; format: cell-based, mouse; conditions: propofol 100 μM
Description: (§2) Ca^2+ Imaging. Neurons were loaded with 1 μM Fluo4-AM (Molecular Probes) for 20 min and washed for a further 10-20 min before recording. The dye was excited at 488±15 nm. Emitted fluorescence was filtered with a 535±25 nm bandpass filter, captured by a SPOT RT digital camera (Diagnostic Instruments) and read into a computer. Analysis was performed offline by using Simple PCI software (Compix Inc.).

TRPA1 [1] = molecular target: T1, TRPA1 (Rattus norvegicus, UniProt Q6RI86); experiment: Single-channel recordings of TRPA1 (outside-out / cell-attached patches); format: cell-based
T1 construct: expressed in transfected cells; host or cells: HEK 293F
Description: (§3) Electrophysiology. HEK 293F cells were transfected with rat TRPV1, TRPA1, and TRPM8 (gift of David Julius, University of California, San Francisco). Dorsal root ganglia were cultured from adult mice (C57B16/J wild type and TRPV1-null, and mixed B6/129 background TRPA1-null) in Neurobasal +2% B-27 medium (Invitrogen), 0.1% L-glutamine and 1% penicillin/streptomycin. Whole-cell and single-channel patch-clamp recordings were performed by using an EPC8 amplifier (HEKA Electronics). For whole-cell and excised patch recordings the bath solution contained 140 mMNaCl, 4 mMKCl, 1 mMMgCl2, 1.2 mMCaCl2, 10 mMHepes, 10 mM glucose, pH 7.3. For cell-attached experiments, NaCl was replaced with KCl in the bath solution. The pipette solution contained 140 mM NaCl or KCl, 10 mM Hepes, 5 mM EGTA, pH 7.3. For neuronal recording NaCl was replaced with K-gluconate (plus 1 mMATP, 0.2 mM GTP). Solutions were applied via a gravity-fed system. Separate outlets were used to apply capsaicin and AITC solutions to avoid contamination. Voltage-dependent properties were measured as described in Matt and Ahern, J. Physiol. 585:469-482 (2007). Current-voltage measurements comprised a 200-ms ramp from −150 mV to +200 mV. The baseline currents under control conditions were subtracted. For cell-attached experiments, peak amplitudes were measured from all-points histograms, and open probability was measured as NPo>750 ms. Defolliculated Xenopus laevis oocytes were injected with ≈10 ng of hTRPA1 (gift of Ardem Patapoutian, The Scripps Research Institute, La Jolla, Calif.). Oocytes were placed in a Perspex chamber and continuously superfused (5 ml min^−1) with Ca^2+-free solution containing 100 mM NaCl, 2.5 mM KCl, 5 mM Hepes, 1 mM MgC12 and titrated to pH 7.3 with ˜5 mM NaOH.

[2] = system: AITC-sensitive DRG neurons; experiment: Voltage- and current-clamp of DRG sensory neurons; format: cell-based, mouse; conditions: 100 μM
Description: as §3

TRPA1 [3] = molecular target: T1, TRPA1; experiment: Whole-cell patch-clamp of TRPA1-expressing HEK293 cells; format: cell-based; conditions: for Response relative to the full agonist AITC: AITC 1 mM
Description: as §1
Volatile General Anesthetics and Chemicals. Saturated stock solutions of volatile GAs were prepared in gas-tight bottles by dissolving excess anesthetic agents in bath solutions overnight. From these stock solutions fresh dilutions were made up every 40-60 min. Concentrations of GAs in the bath solutions were verified by using a modified head-space gas chromatography method. […] Alcohols with <6 carbons were dissolved directly into extracellular solution, and alcohols containing 6 carbons or more were dissolved in DMSO and then diluted into extracellular solutions that were sonicated for 20 min. All other drugs were prepared as stock solutions in DMSO or ethanol and diluted into physiological solution before experiments.

mice [4] = experiment: Flexor reflex response (EMG of semitendinosus muscle) after femoral artery injection; format: in vivo, mouse; conditions: propofol 500 μM, capsaicin 50 μM
Description: (§4) Behavioral Experiments and Neurogenic Inflammation. Animal experiments were performed according to National Institutes of Health and institutional guidelines. […] Nocifensive behavior (nose wiping in sawdust bedding) was recorded for 2 min with a video camera and the duration was subsequently measured by a blinded observer. […] Electromyographic (EMG) activity was recorded via platinum electrodes from the semitendinosus muscle in mice anesthetized with urethane (1.3 g/kg) as described in Ando and Watanabe, Br J. Anaesth. […] The EMG signal was recorded by using a low-pass cutoff frequency of 200 Hz and integrated offline by using a 100-ms time window. […] Ear thickness was recorded by using an engineer's micrometer (Mitutoyo Corp.) before mustard-oil application and thereafter every 15 min for 60 min of anesthesia and 60 min of recovery.

[5] = system: DRG neurons from TRPA1-null mice; experiment: Ca2+ imaging in DRG neurons from TRPA1-null mice; format: cell-based, mouse; conditions: desflurane n=125, propofol n=120
Description: as §2

TRPM8 = molecular target: T2, TRPM8 (Rattus norvegicus, UniProt Q8R455); experiment: Whole-cell patch-clamp of TRPM8-expressing HEK293 cells; format: cell-based; conditions: 100 μM
T2 construct: expressed in transfected cells; host or cells: HEK 293F
Description: as §1

mice [6] = experiment: Nocifensive behavior after topical application to the nasal epithelium; format: in vivo, mouse
Description: as §4

T1 sequence (Q6RI86 whole entry): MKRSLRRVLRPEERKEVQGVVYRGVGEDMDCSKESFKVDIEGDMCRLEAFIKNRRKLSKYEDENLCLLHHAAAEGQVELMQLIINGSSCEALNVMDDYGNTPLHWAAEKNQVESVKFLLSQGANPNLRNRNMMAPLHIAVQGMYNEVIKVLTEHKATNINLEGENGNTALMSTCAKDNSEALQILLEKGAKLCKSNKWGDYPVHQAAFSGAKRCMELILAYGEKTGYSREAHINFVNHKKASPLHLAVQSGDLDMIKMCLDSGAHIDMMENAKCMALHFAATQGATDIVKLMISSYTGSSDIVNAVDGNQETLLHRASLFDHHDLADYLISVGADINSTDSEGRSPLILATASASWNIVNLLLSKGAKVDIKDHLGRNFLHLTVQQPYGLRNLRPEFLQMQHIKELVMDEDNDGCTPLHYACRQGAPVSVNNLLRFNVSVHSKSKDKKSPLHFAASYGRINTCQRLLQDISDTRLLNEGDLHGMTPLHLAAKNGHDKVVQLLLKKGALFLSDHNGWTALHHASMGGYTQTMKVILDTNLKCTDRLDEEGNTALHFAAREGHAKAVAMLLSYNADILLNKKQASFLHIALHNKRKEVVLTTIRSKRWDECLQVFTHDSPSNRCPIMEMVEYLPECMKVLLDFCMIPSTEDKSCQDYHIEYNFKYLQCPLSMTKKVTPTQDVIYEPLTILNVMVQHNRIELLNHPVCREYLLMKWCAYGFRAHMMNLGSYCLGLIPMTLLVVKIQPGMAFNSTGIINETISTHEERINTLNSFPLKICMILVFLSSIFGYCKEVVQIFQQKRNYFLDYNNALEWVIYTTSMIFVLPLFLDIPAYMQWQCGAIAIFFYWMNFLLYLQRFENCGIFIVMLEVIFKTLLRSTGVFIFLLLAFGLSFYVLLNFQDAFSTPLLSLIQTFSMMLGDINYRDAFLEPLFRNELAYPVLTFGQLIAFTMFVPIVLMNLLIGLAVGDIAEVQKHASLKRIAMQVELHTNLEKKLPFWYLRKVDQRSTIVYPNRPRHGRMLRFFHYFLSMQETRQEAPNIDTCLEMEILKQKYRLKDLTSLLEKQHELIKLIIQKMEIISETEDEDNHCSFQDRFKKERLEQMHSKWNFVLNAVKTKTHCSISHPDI
T2 sequence (Q8R455 whole entry): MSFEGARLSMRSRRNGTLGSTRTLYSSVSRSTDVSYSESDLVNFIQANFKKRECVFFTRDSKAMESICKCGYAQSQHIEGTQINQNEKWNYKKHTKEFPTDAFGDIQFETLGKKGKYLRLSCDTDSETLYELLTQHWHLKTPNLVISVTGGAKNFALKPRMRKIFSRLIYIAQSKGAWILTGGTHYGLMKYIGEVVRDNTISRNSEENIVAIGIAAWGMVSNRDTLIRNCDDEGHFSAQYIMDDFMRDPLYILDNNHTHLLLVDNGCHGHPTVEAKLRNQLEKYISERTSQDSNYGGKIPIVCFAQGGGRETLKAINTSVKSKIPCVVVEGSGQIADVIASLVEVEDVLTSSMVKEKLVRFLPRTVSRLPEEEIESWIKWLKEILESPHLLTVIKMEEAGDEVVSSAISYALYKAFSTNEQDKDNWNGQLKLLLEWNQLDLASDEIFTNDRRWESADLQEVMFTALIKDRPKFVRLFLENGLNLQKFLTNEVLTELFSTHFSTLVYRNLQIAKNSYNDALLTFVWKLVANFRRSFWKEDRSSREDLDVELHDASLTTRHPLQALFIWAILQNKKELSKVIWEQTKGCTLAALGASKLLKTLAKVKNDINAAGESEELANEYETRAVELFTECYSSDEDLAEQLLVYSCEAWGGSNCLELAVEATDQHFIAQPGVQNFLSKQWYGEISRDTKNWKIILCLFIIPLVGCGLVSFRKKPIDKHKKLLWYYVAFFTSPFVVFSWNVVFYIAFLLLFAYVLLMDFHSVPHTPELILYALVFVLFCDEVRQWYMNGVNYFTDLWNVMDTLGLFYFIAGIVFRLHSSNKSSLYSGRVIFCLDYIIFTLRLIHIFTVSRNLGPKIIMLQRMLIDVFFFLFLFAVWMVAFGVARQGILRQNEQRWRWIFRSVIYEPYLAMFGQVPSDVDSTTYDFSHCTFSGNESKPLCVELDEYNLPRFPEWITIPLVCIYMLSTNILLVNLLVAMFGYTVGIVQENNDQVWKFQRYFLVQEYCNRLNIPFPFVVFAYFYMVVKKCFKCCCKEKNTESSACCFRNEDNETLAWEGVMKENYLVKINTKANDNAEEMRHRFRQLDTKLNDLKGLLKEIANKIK
TRPV1, sequence (O35433 whole entry): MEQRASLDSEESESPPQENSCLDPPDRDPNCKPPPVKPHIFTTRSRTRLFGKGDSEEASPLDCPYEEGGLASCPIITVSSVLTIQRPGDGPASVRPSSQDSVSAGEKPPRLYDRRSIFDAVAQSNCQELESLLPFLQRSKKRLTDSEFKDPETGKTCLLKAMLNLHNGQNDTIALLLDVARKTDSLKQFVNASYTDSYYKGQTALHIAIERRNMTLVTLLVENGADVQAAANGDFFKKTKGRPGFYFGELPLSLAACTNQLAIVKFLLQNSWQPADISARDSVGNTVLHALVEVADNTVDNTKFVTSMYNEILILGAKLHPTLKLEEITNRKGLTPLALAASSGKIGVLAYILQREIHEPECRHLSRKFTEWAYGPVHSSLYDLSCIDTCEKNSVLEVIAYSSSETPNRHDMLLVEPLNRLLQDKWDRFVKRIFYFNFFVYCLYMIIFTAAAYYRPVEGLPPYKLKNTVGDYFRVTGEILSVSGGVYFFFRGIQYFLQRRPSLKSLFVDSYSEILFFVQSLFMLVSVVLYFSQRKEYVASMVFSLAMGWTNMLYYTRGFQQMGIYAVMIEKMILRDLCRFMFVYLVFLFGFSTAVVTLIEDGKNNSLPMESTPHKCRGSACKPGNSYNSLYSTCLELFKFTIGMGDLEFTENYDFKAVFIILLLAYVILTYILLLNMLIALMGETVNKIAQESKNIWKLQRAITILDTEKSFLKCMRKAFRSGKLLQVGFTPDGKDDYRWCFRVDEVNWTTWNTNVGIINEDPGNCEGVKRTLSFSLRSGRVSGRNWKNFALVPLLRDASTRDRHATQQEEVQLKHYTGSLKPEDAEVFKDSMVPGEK

CC(C)c1cccc(C(C)C)c1O [propofol]
Reduction in half-maximal voltage (V1/2) for TRPV1 activation (TRPV1; n=4-5): 10.5 mV
Effect of i.v. GAs on TRPV1 channels (TRPV1; −50 mV): without effect
Cells with dual sensitivity to propofol and AITC (DRG neurons): ≈ 30%
TRPA1 unitary conductance in presence of propofol (TRPA1 [1]; 100 μM, outside-out patch, Vm +40 mV, decrease from 108 pS): 94 pS
Single TRPA1 channel activity (TRPA1 [1]; cell-free patches): increased TRPA1 activity and reduced the unitary conductance
Inward currents in AITC-sensitive DRG neurons ([2]; n=6): inward currents were also observed
Membrane potential under current clamp ([2]; elicits action potentials): depolarized
Activation of TRPA1 by i.v. GAs (TRPA1 [3]; 100 μM, membrane potential −50 mV): robust activation
Concentration range of TRPA1 activation (TRPA1 [3]; FIG. 2D): 1 to 100 µM
Response relative to the full agonist AITC (TRPA1 [3]; at +200 my): ~38%
Response relative to the full agonist AITC (TRPA1 [3]; at −150 mV): ≈ 8%
Co-application with octanol at TRPA1 (TRPA1 [3]; propofol 100 μM + octanol 1.8 mM): additive response
Flexor reflex muscle activity in TRPA1+/− mice (mice [4]): evoked reflex muscle activity
Flexor reflex muscle activity in TRPA1-null mice (mice [4]): no responses
Ca2+ responses in neurons from TRPA1-null mice [5]: no responses
Change in V1/2 of TRPM8 (ΔV1/2, increase) (TRPM8; n=5-6): 1.7 mV
Effect of i.v. GAs on TRPM8 channels (TRPM8; −50 mV): without effect
Duration of nocifensive response (mice [6]; TRPA1+/− littermates, propofol 50% topical): ≈ 35 s
Nocifensive behavior in TRPA1-null mice (mice [6]; propofol 50% topical): completely absent
Duration of pain-related (nocifensive) behavior (mice [6]; wild-type mice, propofol 50% topical to nasal epithelium, 2-min period): ≈ 40 s
